Tested on: form-deprivation myopia of guinea pigs
Assay: Monocular form-deprivation myopia in guinea pigs, sub-conjunctival injection
Format: in vivo, guinea pig
Details: form-deprivation eyes, 1 μM and 100 μM sub-conjunctival injection daily, after 4 weeks, vs vehicle control group
Method: Experimental animals were 3 weeks old, UK variety, three-color and short-haired guinea pigs. Monocular form-deprivation (FD) was performed by using a facemask, and the form-deprivation eyes were treated with adenylyl cyclase inhibitor (ACI) SQ22536 at different concentrations (for example, 1 μM and 100 μM) by sub-conjunctival injection, so as to differently decrease intraocular cAMP levels. Animals were divided into 4 groups randomly: form-deprivation control group (FD+non-injection), form-deprivation+vehicle control group (FD+vehicle) (vehicle here refers to 0.9% saline), form-deprivation+drug groups (FD+1 μM SQ22536 group and FD+100 μM SQ22536 group). Drugs were sub-conjunctivally injected at 9:00 am every day for 4 weeks. The contralateral eyes were not treated. Refraction were measured with an infrared eccentric refractometer (EIR). Corneal curvature radii were measured with a keratometer. Eye axis parameters, such as vitreous chamber depths and axial lengths, were measured with an A-scan ultrasonograph (11 MHz), respectively, before experiment, 2 weeks after treatment, and 4 weeks after treatment.

SMILES: Nc1ncnc2c1ncn2C1CCCO1 (stereo not drawn) [SQ22536, 9-(Tetrahydro-2-furanyl)-9H-purin-6-amine]
- myopic refractive error (refraction difference between experimental eye and contralateral eye) (time- and concentration-dependent effect (FIG. 1)): less than that of the vehicle control group
- vitreous chamber elongation (vitreous chamber depth difference between experimental eye and contralateral eye) (time- and concentration-dependent effect (FIG. 2)): significantly less than that of the vehicle control group
- axial elongation (axial length difference between experimental eye and contralateral eye) (time- and concentration-dependent effect (FIG. 3)): significantly less than that of the vehicle control group

Reference: patent US9084791B2, “Method of inhibiting myopia and application of an adenylyl cyclase inhibitor as a drug for inhibiting myopia” (SCHOOL OF OPHTHALMOLOGY AND OPTOMETRY, WENZHOU MEDICAL …, priority 2010, dated 2015)
